In ChEMBL document CHEMBL3507680, “University of Dundee, Gates Library screen for HepG2 cell viability” one finds cytotoxicity data, which are given here for 95 compounds.

The data set in a line: Human HepG2 cell viability assay in 384 well format. The format is toxicity, cell-based. More on the design: dose 125 nL, time 70.5 hour; concentration not given beside the values. Particulars: HepG2 cells, read-out: Inhibition.

Structures are written as SMILES.

On to `O=c1c(NCCNCCO)c(N2CCN(Cc3ccccc3)CC2)c1=O`, for which the cytotoxicity at 70.5 h is -3.52%.
Next, `CC(C)CNC(=O)CNC(=O)c1nc(Cc2c(Cl)cccc2Cl)no1`: -9.72%; `O=c1c(NCCCO)c(N2CCN(c3ccccc3)CC2)c1=O`: -2.43%.
Next, `CCOC(=O)c1sc(NC(=O)c2cc(=O)c(OC)c[nH]2)nc1C`: -8.8%.
Next, `O=c1c(NCCc2ccc(O)cc2)c(NCc2ccccn2)c1=O`: 6.43%.
Take `CC(C)C(=O)Nc1ccc2c(c1)ncn2CC(=O)NCCN(C)C`: the cytotoxicity at 70.5 h was -7%.
The figure for `O=C1CC(c2cccnc2)c2c(c(C(=O)O)cn2-c2ccccc2F)N1` (stereo not given) is -13.2%.
The figure for `Cc1nn(C)cc1CC(C#N)C(=O)Nc1cccc(O)c1` (stereo not given) is -12.6%; for `CN(Cc1ccccc1)C(=O)Cn1nc(N2CCOCC2)ccc1=O` it is 9.2%.
The figure for `COc1c[nH]c(C(=O)N2CCN(c3ccccc3)CC2)cc1=O` is -11.3%.
As for `COc1ccccc1CNc1c(N2CCN(C(C)=O)CC2)c(=O)c1=O`, the cytotoxicity at 70.5 h is -10.2%.
Next, `O=C(NC1CC1)c1cccc(Oc2ccc3nncn3n2)c1`: -4.61%; `COc1ccc(-c2csc3c2c(N)nc(=O)n3CCN(C)C)cc1`: -7.62%.
The figure for `Cc1cc(N2CCCC2)nc(N(C)CCO)c1C#N` is -9.55%; for `COc1ccc(-c2csc3c2c(N)nc(=O)n3CCCN(C)C)cc1` it is -8.54%; for `CC(C)n1c(=O)c2ccccc2n(CCN2CCCCC2)c1=O` it is -12.6%.
Next, `CN1CCCN(CC(CC(=O)Nc2ccc(Cl)cc2)C(=O)O)CC1` (stereo not given): -6.04%; `COCCNC(=O)Cn1cc(OCc2ccccc2)c(=O)cc1CO`: -15.3%; `Cc1ccc(C(=O)Nc2nnc(C(C)C)s2)c(-n2cnnn2)c1C`: -5.81%.
Regarding `NC(=O)c1ccccc1NC(=O)CCN1CCN(c2ccccc2)CC1`, the cytotoxicity at 70.5 h is -9.88%.
The figure for `COc1ccc2nnc(CCC(=O)Nc3nc(C)c(C)s3)n2n1` is -9.75%; for `Cc1nn2cnnc2c(C)c1CCC(=O)Nc1nnc(C(C)C)s1` it is 12.1%.
On to `Cn1cc(NC(=O)CNC(=O)N2CCN(c3ccc(F)cc3)CC2)cn1`, for which the cytotoxicity at 70.5 h is -2.76%.
Next, `CC1=Nc2c(c(=O)[nH]n2C(C)C)C(c2ccc3ncccc3c2)S1` (stereo not given): 0.555%.
On to `CN(C)S(=O)(=O)c1ccc(-c2nc(C#N)c(NC3CC3)o2)o1`, for which the cytotoxicity at 70.5 h was -4.74%.
Next, `O=C(CCc1ccc(-n2cnnn2)cc1)Nc1ccncc1`: -7.21%; `Cn1cc(NC(=O)CNC(=O)N2CCN(c3ccc(Cl)cc3)CC2)cn1`: -5.62%.
Next, `CC(C)OCC(=O)Nc1ccc(Oc2ccc3c(c2)OCO3)nc1`: -5.21%.
Next, `COc1coc(C(=O)Nc2nc(-c3ccncc3)cs2)cc1=O`: -11.9%.
Regarding `COc1ccc(NC(=O)c2nc(C)sc2C(C)C)cn1`, the cytotoxicity at 70.5 h was -9.52%.
Next, `O=C(CCc1nc2cccnc2[nH]1)Nc1ccc2c(c1)NC(=O)CO2`: 8.55%; `O=C(Nc1cccnc1-n1cc(Cl)cn1)C1CCCC1`: -29.5%.
The figure for `COc1ccc2nnc(CCCC(=O)NCc3ccccc3)n2n1` is -13.2%; for `O=C1CC(c2ccc(C(=O)O)cc2)c2cnn(Cc3ccco3)c2N1` (stereo not given) it is -25.8%.
For the compound `Cc1nn2c(-c3cnn(C)c3)nnc2s1`, the cytotoxicity at 70.5 h is -7.18%.
In the case of `CC(C)(C)C1CC(=O)Nc2c1cnn2Cc1ccco1` (stereo not given), the cytotoxicity at 70.5 h is -17.9%.
Next, `O=C1CCC(c2ccc(Cl)cc2)=NN1CN1CCCCCC1`: -4.16%.
Consider `COc1coc(C(=O)Nc2nc(-c3cccnc3)cs2)cc1=O`, for which the cytotoxicity at 70.5 h was -13.5%.
For the compound `C[C@H](NC(=O)N1CCN(c2ccc(Cl)cc2)CC1)C(=O)N1CCSCC1`, the cytotoxicity at 70.5 h is -14.7%.
Next, `COc1ccc2nnc(CCC(=O)Nc3nc4c(s3)CCCCC4)n2n1`: -17.3%.
The figure for `Cc1cc(O)cc(=O)n1CCCC(=O)Nc1n[nH]c2ccccc12` is -11.5%; for `Cn1cc(-c2nnc3sc(C4CCC4)nn23)cn1` it is -12.3%.
Next, `Cc1ccc(S(=O)(=O)c2ncccc2CN2CCCC2)cc1`: -22.8%; `Cn1ccc2c(C(=O)NC3CN4CCC3CC4)cccc21` (stereo not given): -32.2%.
Turning to `Cc1cc(C)nc(N2CCC(C(=O)Nc3n[nH]c(CC(C)C)n3)CC2)n1`, the cytotoxicity at 70.5 h was -12%.
Next, `Cc1cc(C)nc(NCCC(=O)Nc2ccc(Cn3cncn3)cc2)n1`: -9.08%; `CC(C)[C@H](NC(=O)N1CCN(c2ccc(Cl)cc2)CC1)C(=O)NC1CC1`: -17%.
The figure for `Cc1ccc(C(=O)N2C[C@@H]3CN(S(C)(=O)=O)CCO[C@@H]3C2)o1` is -0.0736%; for `CC(=O)N1CCC2(CC1)C(=O)N(C)c1c(F)cccc12` it is 3.91%.
`CC(C)CNC(=O)c1cc2c(s1)CCN2Cc1cccnc1`: the cytotoxicity at 70.5 h was -1.22%.
Consider `COCCCN1CCCCC12CC(=O)N(Cc1ccccn1)C2` (stereo not given), for which the cytotoxicity at 70.5 h was -1.98%.
The figure for `Cn1cc(CN2CCc3ncnc(N4CCCC4)c3CC2)cn1` is -0.713%.
The figure for `Cn1cccc1C(=O)N1C[C@@H]2CCCO[C@@H]2[C@H](N2CCOCC2)C1` is 0.647%; for `Cc1ccc(CC(=O)N2CC[C@@H]3NC(=O)CC[C@@H]32)cc1` it is 4.9%.
For the compound `CN(C)CCN1CCOC2(CCN(c3nccs3)CC2)c2ccccc21`, the cytotoxicity at 70.5 h came out at 28.7%.
The figure for `CS(=O)(=O)N1CCOC2(CCN(c3nccs3)CC2)c2ccccc21` is 15.3%; for `CC(C)CN1C(=O)CO[C@@H]2CN(C(=O)NC(C)C)C[C@H]21` it is -2.72%; for `CN(Cc1ccncc1)C1CCC[C@@H]2CN(c3ncccn3)C[C@H]12` (stereo not given in full) it is -2.1%.
The figure for `Cc1noc(C)c1CN1C[C@@H]2CN(C(=O)c3cscn3)C[C@@H]2C1` is -2.29%; for `Cn1cc(CN2CCO[C@H]3C(Cn4cccn4)CC[C@@H]32)cn1` (stereo not given in full) it is 2.67%; for `Cn1cccc1C(=O)N1CC[C@@H]2[C@@H]1CC(=O)N2CC1CCOCC1` it is 0.858%.
`COCCNC(=O)C1CN(Cc2ccsc2)Cc2ccnn2C1` (stereo not given): the cytotoxicity at 70.5 h stood at 1.38%.
The figure for `CS(=O)(=O)N1CC2(CCN(c3nccs3)CC2)c2ccccc21` is 5.59%; for `CS(=O)(=O)N1CCOC2(CCN(c3ncccn3)CC2)c2ccccc21` it is -1.05%.
The figure for `CCn1nnc2c1C(COCCN(C)C)CN(c1nncs1)C2` (stereo not given) is 31.1%; for `CN1CC(c2ccccc2)C2(CCN(C(=O)c3ccc[nH]3)CC2)C1=O` (stereo not given) it is 2.63%; for `COCCN1C(=O)CC[C@]12CC[C@@H](NCc1ccc(OC)cc1)CC2` it is 0.729%.
The figure for `O=S(=O)(c1cccnc1)N1C[C@@H]2COC[C@]2(COCC2CC2)C1` is -3.67%; for `CS(=O)(=O)N1CCO[C@@H]2CN(Cc3ccc(F)cc3)C[C@@H]2C1` it is -6.95%.
Consider `CN(C)S(=O)(=O)c1ccc(-c2nc(C#N)c(NC(C)(C)C)o2)o1`, for which the cytotoxicity at 70.5 h is -8.34%.
In the case of `CN1C(=O)C2(CCN(C(=O)c3ccccc3)CC2)c2cccc(F)c21`, the cytotoxicity at 70.5 h is 0.835%.
The figure for `Cc1cccc(CN2CCS(=O)(=O)[C@@H]3CCN(S(C)(=O)=O)CC[C@@H]32)n1` is 17.2%.
Next, `CN(C)C(=O)N[C@H]1CN(C2CCOCC2)[C@@H]2CCCO[C@H]12`: 17.6%.
The figure for `Cc1noc(C)c1CN1CC2(CCCCN2C)CC1=O` (stereo not given) is 17.1%.
With `CCc1ccc(CN2CCc3ncnc(N4CCOCC4)c3CC2)o1`, the cytotoxicity at 70.5 h is -1.4%.
The figure for `CN(C)CC(=O)N1CCc2ncnc(-c3cncnc3)c2CC1` is -3.5%; for `O=C1NC2(CCN(CC3CC3)CC2)CC1c1ccccc1` (stereo not given) it is -1.19%; for `O=C([C@H]1C[C@@H]2[C@@H](C1)OCCN2CC1CC1)N1CCCC1` it is -1.83%.
Next, `O=C(c1ccccc1)N1C[C@@H]2CCCO[C@@H]2[C@H](N2CCOCC2)C1`: 1.03%; `O=C(c1ccoc1)N1CCCC2(CCC(=O)N2Cc2cccnc2)C1` (stereo not given): 2.4%.
Consider `O=C(NC1CC1)N1CCc2ccc(=O)n(Cc3cccnc3)c2CC1`, for which the cytotoxicity at 70.5 h stood at 6.33%.
Take `Cc1ccc(CN2CCOC3(CCN(C(=O)C4CC=CC4)CC3)C2)cc1`: the cytotoxicity at 70.5 h is -2.99%.
For the compound `CCn1nnc2c1C(COCCN(C)C)CN(S(=O)(=O)CC)C2` (stereo not given), the cytotoxicity at 70.5 h was -1.87%.
The figure for `COc1cccc(CN2CCC3(CC2)CCN(c2ncc(C)cn2)C3)c1` is -0.283%; for `c1cnc(N2CCO[C@H]3[C@H](OCCN4CCCC4)CC[C@@H]32)nc1` it is 0.11%.
The figure for `Cc1ccc(CN2CCOC3(CCN(C(=O)N4CCCC4)CC3)C2)cc1` is -2.45%; for `CCn1nnc2c1C(COCCN(C)C)CN(S(C)(=O)=O)C2` (stereo not given) it is 2.19%; for `O=C(NC1CC1)N1CCc2ccc(=O)n(CCN3CCCC3)c2CC1` it is 0.272%.
The figure for `N#Cc1ccc(N2CCC3(CC2)CC(OCc2cccnc2)CO3)cc1` (stereo not given) is -1.15%.
As to `CN(C)C(=O)COC1COC2(CCN(c3cnccn3)CC2)C1` (stereo not given), the cytotoxicity at 70.5 h is 1.25%.
Next, `CC(C)N(C)Cc1nnc2n1CCN(CC1CC1)CC2`: -0.138%.
`Cc1ccc2c(n1)N(C)CCN(Cc1ccco1)C2`: the cytotoxicity at 70.5 h is -1.42%.
The figure for `O=C(CO[C@@H]1CC[C@H]2[C@H]1OCCN2Cc1ccccn1)N1CCCC1` is 13.4%; for `Cc1ccc2c(n1)N(C)CCN(CCN1CCCC1)C2` it is 4.19%; for `CN(C)CCN1CCO[C@H]2CN(Cc3ccccn3)C[C@H]21` it is -6%.
